Reference: patent publication US9468209B2, “Method for eradicating weeds with derivatives of 3-acetyl-5-sec-butyl-4-hydroxy-3-pyrrolin-2-one” (priority 2012, dated 2016)

Experiments:
[1] = system: monocotyledon weeds (such as common crabgrass and barnyardgrass) and dicotyledonous weeds including Crofton weeds; conditions: concentration of 50 μg/mL; cited from earlier work
Hill reaction [2] = conditions: versus 3-(3,4-dichlorophenyl)-1,1-dimethylurea (DCMU); cited from earlier work
rat = conditions: called moderate toxicity; cited from earlier work
Crofton weed [3] = test: Needle puncture pathogenic test on slightly wounded leaf of Crofton weed; type: in vivo; conditions: Crofton weed leaf; for Avg. diameter of the spot after 24 h / Time of disease spot to occur: analogs with formula (I) and (II); for Time of Disease spot / Average diameter of spot after 24 h: 50 μg/mL, 25° C., natural light
Method: 3-acetyl-5-sec-butyl-4-hydroxy-3-pyrrolin-2-one analogs were dissolved in a small amount of methanol and diluted with water to a concentration of 5-100 μg/g. A pathogenic test was conducted by placing the toxic liquid on the slightly wounded leaf of Crofton weed with a needle. The test has shown that the pathogenic capability of 3-acetyl-5-sec-butyl-4-hydroxy-3-pyrrolin-2-one analogs with respect to Crofton weed increases with the increase of concentration. The spot diameter caused on the leaf of Crofton weed after 24 hours was 2 mm at 50 μg/g.
3-acetyl-5-sec-butyl-4-hydroxy-3-pyrrolin-2-one analogue (Table 3, compounds 10-57) was dissolved in small amount of methanol. The solution was then diluted with distilled water to a concentration of 50 μg/mL. Methanol solution with same concentration and pure distilled water were used as control of the experiment. A pathogenic test was conducted by placing the toxic liquid on the slightly wounded leaf of Crofton weed with a needle. The experiment was carried out at 25° C. under the natural light and each test was repeated 6 times. It was measure the diameter of the spot after 24 h. […] The size of the side chain also has an effect on their activity.
Fourteen salts of 3-acetyl-5-sec-butyl-4-hydroxy-3-pyrrolin-2-one analogs were dissolved in small amount of methanol and diluted with distilled water to a concentration of 50 μg/mL. Methanol/water mixture was also prepared and used as control. Needle puncture method was used for the test on the small pieces of Crofton weed. Each treatment was repeated six times or more. The test samples were kept under natural light at 25° C. for 24 hours. The diameters of damaged spot of the plant leaves were measured by vernier caliper.

Crofton weed [4] = test: Spray on leaves and stems of three-leaf-stage Crofton weed seedlings grown in pots in a greenhouse; type: in vivo; parameters: key: 4: Plant completely dead; 3: Two thirds of the plant stems and leaves dried out; 2: Half of the plant stems and leaves dried out; 1: One third of the plant stems and leaves dried out; 0: No damage at all; conditions: 50 μg/mL spray, assessed two days later
Method: Compounds 1, 2, 3, and 40 were separately dissolved in a small amount of methanol. The solutions were then diluted with distilled water to a concentration of 50 μg/mL. A mixture of methanol and water in the same ratio as the sample solution was also prepared and used as control in the experiment. The solutions were sprayed on leaves and stems of three-leaf-stage Crofton weed seedlings. All the plants were grown in pot in a greenhouse. The leaves were properly wet by the solutions for consistency and the treatment was repeated 3 times. The measurement of the plant damage was calculated by the formula: Damage Index=Σ(damage level×number of plants)×100/4/number of plants in each treatment.

Hill reaction [5] = test: Hill reaction activity of treated Crofton weed leaves; type: biochemical; conditions: 50 μg/mL, strong light 12 hours
Method: (§1) Compounds 10-57 were dissolved in small amount of methanol. The solutions were then diluted with distilled water to a concentration of 50 μg/mL. A mixture of methanol and water in the same ratio as the sample solution was also prepared and used as control in the experiment. The healthy leaves of Crofton weed were washed in water for 30 minutes and then rinsed with distilled water. The clean and tissue dried leaves were placed in petri dish with the back-side of the leaves facing up. Wet filter paper was also placed in the in petri dish for moisture control. Water, methanol and chemical solutions of the analogues were applied to the back-side of each leaf. Test sample was then placed in vacuum chamber at 25° C. for 15 min followed by exposure to the strong light (400 μM m^−2 s^−1) for 12 hours. The leaf sample went through a series of test, and the Hill reaction rate, the electron transfer activity and fluorescence of chlorophyll were measured. Four leaves were used for each treatment and each test was repeated three times.

photosystem II = test: PSII oxygen evolution / electron transfer activity of treated Crofton weed leaves; type: biochemical; conditions: 50 μg/mL, strong light 12 hours
Method: as §1

[6] = system: fluorescence of chlorophyll; test: Fluorescence of chlorophyll of treated Crofton weed leaves; type: biochemical; conditions: 50 μg/mL, strong light 12 hours
Method: as §1

Crofton weed [7] = test: Needle puncture test on Crofton weed with washes recovered from compound-treated soil; type: in vivo; conditions: after soil treatment (3 hours)
Method: Compounds 1, 2, 3, and 40 were dissolved in small amount of methanol and diluted with distilled water to concentration of 50 μg/mL. The solution was sprayed to the soil sample until the soil was wet but not overflows. After standing at room temperature for 3 hours, the soil sample was washed with water and methanol. The wash solution was collected and concentrated. Such process was repeated three times. The concentrated solutions were used for herbicidal activity test using the method of needle puncture on Crofton weed. Methanol water solution and pure water were used as control. The experiment for every sample was repeated six times. The spot diameters were measured with vernier caliper after the plant was kept under natural light at 25° C. for 24 hours (Table 11).

| Structure (SMILES) | killing monocotyledon and dicotyledonous weeds [1] | inhibition to Hill reaction compared with DCMU (Hill reaction [2]) | toxicity to rat (rat) [mg/kg] | Avg. diameter of the spot after 24 h (Crofton weed [3]) [mm] | Time of disease spot to occur (Crofton weed [3]) [h] | Damage level (Crofton weed [4]) | Activity of Hill Reaction (Hill reaction [5]) [uMO2/mgChlh] | PSII Activity of oxygen evolution (photosystem II) [uMO2/mgChlh] | Fv/Fm [6] | Average diameter of the spot after 24 h, H2O wash (Crofton weed [7]) [mm] | Average diameter of the spot after 24 h, Methanol wash (Crofton weed [7]) [mm] | Time of Disease spot (Crofton weed [3]) [h] | Average diameter of spot after 24 h (Crofton weed [3]) [mm] |
| --- | --- | --- | --- | --- | --- | --- | --- | --- | --- | --- | --- | --- | --- |
| CCC(C)C1NC(=O)C(C(C)=O)=C1O (centres unmarked) [3-acetyl-5-sec-butyl-4-hydroxy-3-pyrrolin-2-one] | very effective | much higher than the typical photosynthetic inhibitor | 200 |  |  |  |  |  |  |  |  |  |  |
| CCC(C)C1NC(=O)CC1=O (centres unmarked) [Compound 1] |  |  |  | 1.97 ± 0.04 | 22.3 ± 0.77 | 2 | 98.76 | 50.89 | 0.82 | 0.223 ± 0.077 | 0.292 ± 0.041 |  |  |
| CCCC(Cl)C1NC(=O)CC1=O (centres unmarked) [Compound 2] |  |  |  | 2.96 ± 0.01 | 22.0 ± 2.30 | 2 | 69.41 | 37.02 | 0.84 | 0.280 ± 0.030 | 0.362 ± 0.012 |  |  |
| CCC(C)C1NC(=O)C=C1O (centres unmarked) [Compound 3] |  |  |  | 2.31 ± 0.09 | 20.9 ± 1.01 | 1 | 62.21 | 32.14 | 0.83 | 0.273 ± 0.062 | 0.334 ± 0.082 |  |  |
| CCOCCC(=O)C1=C(O)C(C(C)CC)NC1=O (centres unmarked) [Compound 45] |  |  |  |  |  |  | 41.00 | 27.04 | 0.79 |  |  | 20.3 ± 0.57 | 2.73 ± 0.73 |
| CCC(C)C1NC(=O)C(C(=O)OCCc2ccccc2)=C1O (centres unmarked) [Compound 46] |  |  |  |  |  |  | 58.78 | 43.67 | 0.82 |  |  | 22.1 ± 1.35 | 2.31 ± 0.44 |
| CCC(C)C1NC(=O)C(C(=O)CCOc2ccccc2)=C1O (centres unmarked) [Compound 47] |  |  |  |  |  |  | 67.99 | 49.01 | 0.82 |  |  | 21.2 ± 1.88 | 2.12 ± 0.09 |
| CCC(C)C1NC(=O)C(C(=O)Cc2ccccc2)=C1O (centres unmarked) [Compound 51] |  |  |  |  |  |  | 52.23 | 32.15 | 0.81 |  |  | 15.1 ± 1.82 | 3.28 ± 1.12 |
| CCC(C)C1NC(=O)C(C(=O)Cc2ccc([N+](=O)[O-])cc2)=C1O (centres unmarked) [Compound 52] |  |  |  |  |  |  | 53.13 | 36.86 | 0.82 |  |  | 15.3 ± 1.72 | 3.83 ± 1.03 |
| CCCCCC(C#N)C1NC(=O)C(=C(C)O)C1=O (centres unmarked) [Compound 54] |  |  |  |  |  |  | 43.65 | 31.98 | 0.81 |  |  | 11.30 ± 0.73 | 8.211 ± 0.101 |
| CC(=O)C1C(=O)NC(C)C1=O (centres unmarked) [Compound 57] |  |  |  |  |  |  | 63.42 | 35.13 | 0.82 |  |  | 20.4 ± 0 | 1.98 ± 0.51 |
